Reference: patent US8795978B2, “Modulating latency and reactivation of Mycobacterium tuberculosis” (priority 2007, dated 2014)
Where two headings read alike, the source gives them in different places.

How the values were obtained:
DosT [1] = biological target: T1, DosT (Mycobacterium tuberculosis, UniProt P9WGK1); format: binding; conditions: for binding to DosT heme iron in the presence of O2: oxy DosT (Fe2+-O2); for binding to DosT heme iron (nitrosylated / carbonylated heme formation): deoxy DosT (DTH treated), UV-visible and EPR spectroscopy
T1 sequence (P9WGK1 whole entry): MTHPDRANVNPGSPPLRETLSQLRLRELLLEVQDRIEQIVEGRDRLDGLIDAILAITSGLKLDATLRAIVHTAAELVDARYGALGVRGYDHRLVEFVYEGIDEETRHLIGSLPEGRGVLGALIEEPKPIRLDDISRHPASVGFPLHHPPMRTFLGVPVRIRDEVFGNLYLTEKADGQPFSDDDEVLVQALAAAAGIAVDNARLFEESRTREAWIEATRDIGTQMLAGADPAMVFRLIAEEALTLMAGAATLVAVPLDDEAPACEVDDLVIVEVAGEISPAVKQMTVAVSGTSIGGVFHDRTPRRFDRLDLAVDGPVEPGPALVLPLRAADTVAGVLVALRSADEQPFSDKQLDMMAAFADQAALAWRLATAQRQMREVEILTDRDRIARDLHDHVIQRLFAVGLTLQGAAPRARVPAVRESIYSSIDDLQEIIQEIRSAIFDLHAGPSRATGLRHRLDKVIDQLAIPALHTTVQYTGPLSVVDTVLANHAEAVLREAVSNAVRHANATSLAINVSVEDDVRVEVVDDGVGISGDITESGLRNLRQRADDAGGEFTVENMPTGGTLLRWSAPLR

DosS [2] = biological target: T2, DosS (Mycobacterium tuberculosis, UniProt P9WGK3); format: binding; conditions: for binding to DosS heme iron (heme-nitrosyl / heme-carbonyl formation): ferrous DosS (DTH treated), UV-visible and EPR spectroscopy
T2 sequence (P9WGK3 whole entry): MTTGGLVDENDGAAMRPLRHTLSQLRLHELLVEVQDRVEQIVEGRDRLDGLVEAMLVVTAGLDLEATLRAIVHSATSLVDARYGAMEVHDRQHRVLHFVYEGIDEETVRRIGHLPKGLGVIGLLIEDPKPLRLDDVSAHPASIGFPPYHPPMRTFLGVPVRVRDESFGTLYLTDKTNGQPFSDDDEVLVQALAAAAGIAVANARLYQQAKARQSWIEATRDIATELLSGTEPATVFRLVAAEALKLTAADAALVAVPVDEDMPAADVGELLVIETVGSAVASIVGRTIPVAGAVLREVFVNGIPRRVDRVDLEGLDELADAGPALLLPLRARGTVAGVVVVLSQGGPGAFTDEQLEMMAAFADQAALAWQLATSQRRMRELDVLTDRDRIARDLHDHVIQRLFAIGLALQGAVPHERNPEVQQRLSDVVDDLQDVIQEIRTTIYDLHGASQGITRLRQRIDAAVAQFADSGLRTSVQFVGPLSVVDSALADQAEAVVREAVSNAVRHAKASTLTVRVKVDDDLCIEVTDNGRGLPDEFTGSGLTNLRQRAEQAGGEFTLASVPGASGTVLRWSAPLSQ

DosS [3] = biological target: T2, DosS; format: biochemical
Protocol: (§1) In-vitro phosphorylation assays were performed according to previously described methods (Roberts et al., J. Biol. Chem., 2004, 279:22) and analyzed on 4-20% Tris-HCl gradient PAGE gels, dried and exposed to X-ray film overnight at −80° C. Formation of a heme-nitrosyl/carbonyl complex was first confirmed by absorption spectroscopy before analyzing samples for autokinase activity. As an additional control, air exposed samples were also treated with proline NONOate. The effect of CO on autokinase activity was measured similarly as described for NO, except that protein samples were flushed with 100% CO for 30 seconds. All autokinase reactions were performed inside the glove box.

DosT [4] = biological target: T1, DosT; format: biochemical
Protocol: as §1

[5] = DTH reduced DosS (Fe2+) exposed to ligand, relative to met DosS

SMILES	binding to DosT heme iron in the presence of O2 (DosT [1])	binding to DosT heme iron (nitrosylated / carbonylated heme formation) (DosT [1])	binding to DosS heme iron (heme-nitrosyl / heme-carbonyl formation) (DosS [2])	effect on DosS autokinase activity (DosS [3]; [5])	also measured
O=O [O2, oxygen]					state of DosT heme iron after air exposure (DosT [1]): air exposed DosT is in the oxygen bound (oxy) form; effect on DosS heme iron oxidation state (DosS [2]): rapidly oxidized by O2 to generate met DosS; effect on DosS autokinase activity (DosS [3]): dramatically decreases its autokinase activity; effect on DosT autokinase activity (DosT [4]): inhibits autokinase activity
O=C([O-])[C@@H]1CCCN1/[N+]([O-])=N/[O-].[Na+].[Na+] [proline NONOate]	did not generate any detectable nitrosyl-heme species				binding to DosS heme iron (nitrosyl-heme EPR signal) (DosS [2]; air exposed (met, Fe3+) DosS): no EPR signal characteristic of a nitrosyl-heme species was generated
[N]=O [NO, nitric oxide]	but not NO can effectively substitute O2 from oxy DosT	binds deoxy DosT	binds DosS	significantly increased autokinase activity to levels comparable to active ferrous DosS autokinase activity	effect on DosT autokinase activity (DosT [4]; ligand bound to DosT, compared with deoxy or oxy DosT): significantly increased autokinase activity as compared to inactive oxy DosT
[C-]#[O+] [CO, carbon monoxide]	highly indicative of a heme-carbonyl complex	highly characteristic of the formation of nitrosylated and carbonylated heme species	generated heme-nitrosyl and heme-carbonyl DosS species	significantly increased autokinase activity as compared to inactive met DosS	effect on DosS autokinase activity (DosS [3]; met DosS (Fe3+) exposed to ligand): found not to generate any further autokinase activity; rank of DosT autokinase activity (DosT [4]; deoxy DosT (DTH reduced) treated with ligand vs untreated): deoxy DosT showed the highest autokinase activity, followed by CO-DosT and finally oxy DosT; effect on DosT autokinase activity (DosT [4]; oxy DosT treated with ligand on the bench): significantly enhanced autokinase activity compared to inactive oxy DosT
